Test results published in patent US20200291100A1, “TREATMENT OF AGE-RELATED AND MITOCHONDRIAL DISEASES BY INHIBITION OF HIF-1 ALPHA FUNCTION” (President and Fellows of Harvard College, priority 2012, published 2020).

Tested on: primary myoblasts
Experiment: NMN in primary myoblasts with NMNAT1 knockdown, qPCR of mitochondrial-encoded genes
Assay type: cell-based, mouse
Conditions: cells with knockdown of NMNAT1 versus nontargeting shRNA
Source text: FIGS. 17A-17L reveal that increasing NAD+ levels rescues age-related mitochondrial and muscle dysfunction through a SIRT1-HIF-1α pathway. FIG. 17A depicts NAD+ levels in gastrocnemius of 3- and 24-month-old mice treated with either the vehicle (PBS) or NMN (n=5, *p<0.05 versus 3-month-old PBS animals, #p<0.05 versus 24-month-old PBS animals). FIG. 17B depicts ATP content in gastrocnemius of 6- and 22-month-old mice treated with either the vehicle (PBS) or NMN (n=6). FIG. 17C depicts expression of mitochondrial-encoded genes (ND1, Cytb, COX1 and ATP6) analyzed by qPCR in gastrocnemius of 6- and 22-month-old mice treated with either the vehicle (PBS) or NMN. Relative expression values were normalized to 6-months old PBS mice (n=6). […] FIG. 17F depicts expression of mitochondrial-encoded genes (ND1, Cytb, COX1 and ATP6) analyzed by qPCR in gastrocnemius of WT and Egln1 KO mice treated with either the vehicle (PBS) or NMN. […] FIG. 17H depicts expression of mitochondrial-enoded genes (ND1, Cytb, COX1 and ATP6) analyzed by qPCR in primary myoblasts WT cells infected with NMNAT1 or nontargeting shRNA treated with either the vehicle (PBS) or NMN. […] FIG. 17I depicts expression of mitochondrial-encoded genes (ND1, Cytb, COX1 and ATP6) analyzed by qPCR in gastrocnemius of WT and SIRT1 KO mice treated with either the vehicle (PBS) or NMN. […] Values are expressed as mean±SEM. […]

## NC(=O)c1ccc[n+]([C@@H]2O[C@H](COP(=O)([O-])O)[C@@H](O)[C@H]2O)c1 [NMN, nicotinamide mononucleotide]
  ability of NMN to induce the expression of mitochondrial-encoded genes: completely abolishes
